Values of other authors in US7119079B2, “Bioadhesive pharmaceutical compositions” (priority 2003, dated 2006).

How the values were obtained:
[1] = test system: Mycobacterium tuberculosis
[2] = test system: distal ulcerative colitis; conditions: compared with hydrocortisone and mesalamine enemas
[3] = test system: distal ulcerative colitis; conditions: enemas, patients with distal ulcerative colitis; fraction of patients

Compound | activity against Mycobacterium tuberculosis [1] | effectiveness of enemas in distal ulcerative colitis [2] | patients showing improvement [3]
Nc1ccc(C(=O)O)c(O)c1 [Compound 4-ASA, 4-amino salicylic acid] | bacteriostatic | as effective as hydrocortisone enemas and as effective as mesalamine enemas | 
Nc1ccc(O)c(C(=O)O)c1 [mesalamine, 5-amino salicylic acid] |  |  | Three quarters
Nc1ccc(S(=O)(=O)Nc2ccccn2)cc1 [sulfapyridine] |  |  | about one third
O=C(O)c1cc(/N=N/c2ccc(S(=O)(=O)Nc3ccccn3)cc2)ccc1O [sulfasalazine, salicyl-azo-sulfapyridine] |  |  | Three quarters
